pIC50: −log10 of the molar value. Like-named read-outs stand apart in the source and are kept apart here. One block for each molecule: values may come before it.
What was measured:
[1] = molecular target: T1, TXA2 receptor (washed human platelets) (Homo sapiens, UniProt P21731); assay: Displacement of [^3 H]-SQ 29,548 binding to washed human platelets (TxA2 antagonism)
T1 construct: endogenous in cells; host or cells: washed human platelets from healthy volunteers
T1 sequence (P21731 1-343): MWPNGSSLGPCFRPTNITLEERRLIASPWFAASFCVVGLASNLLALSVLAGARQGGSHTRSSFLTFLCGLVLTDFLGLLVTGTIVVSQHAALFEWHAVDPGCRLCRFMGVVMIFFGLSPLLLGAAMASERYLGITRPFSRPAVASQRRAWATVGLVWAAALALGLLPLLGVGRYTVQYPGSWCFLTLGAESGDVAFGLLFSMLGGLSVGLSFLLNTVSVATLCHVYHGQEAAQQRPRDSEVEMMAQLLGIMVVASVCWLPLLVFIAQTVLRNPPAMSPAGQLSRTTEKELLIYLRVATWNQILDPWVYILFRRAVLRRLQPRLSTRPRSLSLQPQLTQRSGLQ
Experimental: (§1) The effects of a representative group of compounds of the invention were evaluated, in comparison with known compounds, on TxB2 synthesis inhibition in vitro, in whole blood of normal rates, and on TxA2 antagonism in a binding assay in washed human platelets.
Displacement of [^3 H]--SO 29,548 binding to washed human platelets.
Blood from healthy volunteers of both sexes who had not taken any medication for at least 10 days was collected into one-tenth volume of acid citrate dextrose containing indomethacin (28 μM). Platelet rich plasma (PRP), obtained by centrifugation of the blood at 200 xg for 20 min. was washed twic (1000 xg for 10 min). The platelets are then resuspended in Tyrode-Hepes buffer (pH 7.4) to a final concentration of […] and incubated for 0-60 min at 25° with [^3 H]--SQ 29,548 (5 nM). For displacement experiments various concentrations (10^-9 -10^-4 M) of competing ligands were added and incubated for 30 min at 25° C. […] After the incubation, 4 ml of ice-cold TRIS-HC1 buffer (10 mM, pH 7.4) was added to each tube and the reaction mixture was immediately filtered by suction through a Whatman GF/C glass filter disc which was washed 2 times with ice-cold TRIS-CH1 (4 ml) and counted for radioactivity by a Packard β-counter.
The binding data were analysed by computerized non-linear curve fitting using the Ligand program and expressed as ID50.

[2] = system: TxB2 synthesis; assay: TxB2 synthesis inhibition in vitro, in whole blood of normal rats; assay type: cell-based, rat (Sprague Dawley)
Experimental: as §1
TxB2 synthesis inhibition
Blood was withdrawn from the abdominal aorta of normal Sprague Dawley rats (Charles River Italy) under light ether anaesthesia. The blood was immediately divided in portions of 0.5 ml and distributed in glass tubes each containing a concentration of the test compound, or of the reference compounds.
Samples were then allowed to clot for 1 hour at 37° C., centrifuged at 3000 rpm for 10 min, and serum collected and stored at -20° C. until assayed.

[3] = Table 3, rat whole blood, read-out: TxB2 synthesis IC50
[4] = Rattus norvegicus, Table 2, whole blood of normal rats, 1 hour at 37° C., read-out: In vitro effect on TxB2 synthesis in normal rats, IC50 (whole blood)

pIC50 ([1]; Table 3, washed human platelets, read-out: ^3 H-SQ 29548 binding displacement IC50): 7.00
Compound: COc1ccc2c(c1)/C(=N/OCCCCC(=O)O)C(n1ccnc1)C(c1ccc(OC)c(OC)c1)O2 (racemic) [FCE 26603, (+-)-(Z)-5-[[2-(3,4-dimethoxyphenyl)-3-(1H-imidazol-1-yl)-2,3-dihydro-6-methoxy-4H-1-benzopyranylidene]aminoxy]pentanoic acid]
pIC50 [2, 3]: 6.70

pIC50 ([1]; Table 1, washed human platelets, 30 min at 25° C., read-out: ^3 H SQ 29548 binding displacement (washed human platelet) IC50): 7.48
TxA2 antagonism ([1]; platelets, in words): patent TxA2 antagonist
Compound: O=C(O)CCCCCO/N=C1/c2ccccc2OC(c2ccccc2)C1n1ccnc1 (racemic) [FCE 27016, (+-)-(Z)-6-[[2-phenyl-3-(1H-imidazol-1-yl)-2,3-dihydro-4H-benzopyranylidene]aminoxy]hexanoic acid]
affinity for the receptor compared with BM 13505 and BM 13177 ([1]; washed human platelets, in words): greater than those of compounds BM 13505 and BM 13177

Compound: CC(=O)Oc1ccccc1C(=O)O [ASA, acetylsalicilic acid]
pIC50 ([2]; Rattus norvegicus, 1 h, read-out: In vitro effect on TxB2 synthesis in normal rats, IC50 (whole blood)): 4.51

Compound: O=C(O)COc1ccc(CCNS(=O)(=O)c2ccccc2)cc1 [BM 13177]
TxB2 synthesis IC50 ([2]; Table 3, rat whole blood): inactive

Compound: O=C(O)Cc1ccc(CCNS(=O)(=O)c2ccc(Cl)cc2)cc1 [BM 13505]
TxB2 synthesis IC50 ([2]; Table 3, rat whole blood): inactive

^3 H-SQ 29548 binding displacement IC50 ([1]; Table 3, washed human platelets): inactive
Compound: O=C(O)c1ccc(OCCn2ccnc2)cc1 [Dazoxiben]
pIC50 [2, 4]: 5.92
pIC50 [2, 3]: 5.92

Compound: CC1Oc2ccccc2/C(=N/OCCCCC(=O)O)C1n1ccnc1 (stereo not shown) [FCE 26365, 5-[[2-methyl-3-(1H-imidazol-1-yl)-2,3-dihydro-4H-1-benzopyranylidene]aminoxy]pentanoic acid]
pIC50 [2, 4]: 7.57
inhibition of platelet TxA2 synthase ([2]; in words): potent inhibitor of platelet TxA2 synthase

— patent US5246956A, “N-imidazolyl derivatives of substituted alkoxyimino tetrahydronaphthalenes and chromans having antithromboxane A2 activity” (Farmitalia Carlo Erba S.r.l., priority 1991, dated 1993)
